Laboratory results from US5530133A, “7'-amino-naphthazarin antibiotic derivatives” (Gruppo Lepetit SpA, priority 1995, dated 1996).

Tests used:
[1] = test system: Trichomonas vaginalis (clin. isol.); test: MIC by broth dilution, Trichomonas vaginalis; type: cell-based; conditions: code TVL; approx. 10^5 cells/ml; Trichomonas Culture Medium Base + 10% horse serum; 48 h, 37° C.
Procedure: Inocula were approximately 10^4 cfu. Incubation was for 48 hours at 37° C. in nitrogen-carbon dioxide-hydrogen (80:10:10). […] The inoculum was approximately 10^5 cells/ml. After 48 hours of incubation at 37° C. in nitrogen-carbon dioxide-hydrogen (80:10:10) the wells were viewed directly with a microscope to detect the presence of viable (motile) protozoa.

[2] = test system: Gardnerella vaginalis ATCC 14018; test: MIC by agar dilution, Gardnerella vaginalis; type: cell-based; conditions: code 332; Casman medium + rabbit blood; approx. 10^4 cfu; 48 h, 37° C.
[3] = test system: Gram-positive and Gram-negative bacteria and fungi; conditions: according to U.S. Pat. No. 3,914,257; fungi incl. Trichophyton mentagrophytes and Candida albicans; cited from earlier work

Row | SMILES | MIC [1] | MIC [2] | in vitro antimicrobial activity [3]
1 | CNC1=CC(=O)c2c(O)c3c(c(O)c2C1=O)OC1(CCc2cc4cc(C(=O)OC)oc(=O)c4c(O)c2O1)C3 (stereo not shown) [Example 32, 7'-methylamino γ-rubromycin] | 2 µg/mL | – | –
2 | CCNC1=CC(=O)c2c(O)c3c(c(O)c2C1=O)OC1(C3)CC(O)c2cc3cc(C(=O)OC)oc(=O)c3c(O)c2O1 (stereo not shown) [Example 10, 7'-ethylamino purpuromycin] | 8 µg/mL | 2 µg/mL | –
3 | COC(=O)c1cc2cc3c(c(O)c2c(=O)o1)OC1(Cc2c(O)c4c(c(O)c2O1)C(=O)C(OC)=CC4=O)CC3O (stereo not shown) [purpuromycin] | – | – | active in vitro against both Gram-positive and Gram-negative bacteria and fungi
